In this assay the test system is Human RSV-A (“Long” strain). In words: RSV-A assay: inhibition of cytopathic effect in Hep-2 cells, ATPlite readout. The format is cell-based, Human respiratory syncytial virus (HRSV). The conditions noted are these: read-out: Human RSV-A (“Long” strain) EC50. The text has this: Hep-2 cells, (originally derived from tumors grown in irradiated-cortisonised weanling rats that had been injected with epidermoid carcinoma tissue from a person's larynx, but later found to be indistinguishable from HeLa cells by PCR DNA analysis), were used for the culturing of genotype A, “Long” strain RSV. Flasks were inoculated with RSV and viral stocks were collected once cytopathic effect (CPE) was greater than 90%. Viral stocks in 25% sucrose media were snap frozen using liquid nitrogen to increase viral stability. Viral stock titers were quantified by tissue culture infectious dose 50% (TCID50) using 8,000 cells per well and 3-fold viral dilutions across a 96-well plate, cultured for 4 days. Viral stock titers were also quantified by a plaque forming unit assay, as described elsewhere.
Following extensive parameter testing, the final assay is run as follows: Hep-2 cells are seeded into the inner 60 wells of a 96-well plate at 8,000 cells per well in a volume of 50 μL using Growth Media (DMEM without phenol red, 1% L-Glut, 1% Penn/Strep, 1% nonessential amino acids, 10% heat-inactivated FBS). 2-fold serial dilutions of control and test compounds are added to the wells in duplicate in a total volume of 25 μL. Viral stock is then added to the wells at a multiplicity of infection (MOI) of 0.1 in a volume of 25 μL, bringing the total volume of each well to 100 μL. The MOI is calculated using the PFU/mL, or TCID50 if unavailable. Each 96-well plate has a control column of 6 wells with cells and virus but no compound (negative control, max CPE), a column with cells but no compound or virus (positive control, minimum CPE), and a column with no cells or virus or compound (background plate/reagent control). The control wells with cells but no virus are given an additional 25 uL of growth media containing an equal quantity of sucrose as those wells receiving the viral stock in order to keep consistent in media and volume conditions. The outer wells of the plate are filled with 125 μL of moat media (DMEM, 1% Penn/Strep) to act as a thermal and evaporative moat around the test wells. Following a 5-day incubation period, the plates are read using ATPlite (50 uL added per well), which quantifies the amount of ATP (a measure of cell health) present in each well. Assay plates are read using the Envision luminometer. In parallel, cytotoxicity is examined on an additional 96-well plate treated in an identical manner, but substituting the 25 μL of viral stock for 25 μL of growth media. […] EC50 ranges are as follows: A<0.4 μM; B 0.4-0.8 μM; C>0.8 μM and CC50 ranges are as follows: A>50 μM; B 10-50 μM; C<10 μM.

[1] abbreviates: human respiratory syncytial virus, HEp-2, 120 h.
[2] abbreviates: Hep-2 cells, MOI 0.1, 5-day incubation, ATPlite.

pEC50: −log10 of the molar value. Read-outs that look alike come from different tables or passages of the source.

For the compound `O=C1Nc2ccccc2C(c2ccccc2)=N[C@@H]1Nc1nnc(-c2ncc(C(F)(F)F)cc2N2CCOC3CC32)o1` (mixture of isomers) [Example 466], the pEC50 under setting [1] is > 6.40. For the compound `O=C1Nc2ccccc2C(c2ccccc2)=N[C@@H]1Nc1nnc(-c2ncc(C(F)(F)F)cc2N2CCOC(C(F)(F)F)C2)o1` (mixture of isomers) [Example 467], the pEC50 under setting [1] was > 6.40. With `O=C1Nc2ccccc2C(c2ccccc2)=N[C@@H]1Nc1nnc(-c2nc(C(F)(F)F)sc2N2CCO[C@H]3C[C@H]32)o1` (single isomer, unassigned) [Example 484], the pEC50 under setting [2] is > 6.40. Turning to `O=C1Nc2ccccc2C(c2ccccc2)=N[C@H]1Nc1nnc(-c2nc(C(F)(F)F)sc2N2CCO[C@H]3C[C@H]32)o1` (single isomer, unassigned) [Example 485], under setting [2], the pEC50 is < 6.10.

For `O=C1Nc2ccccc2C(c2ccccc2)=N[C@@H]1Nc1nnc(-c2nc(C(F)(F)F)sc2N2CCO[C@@H]3C[C@@H]32)o1` (single isomer, unassigned) [Example 486], under setting [2], the pEC50 is < 6.10. Same read-out and setting: the same measure for `O=C1Nc2ccccc2C(c2ccccc2)=N[C@H]1Nc1nnc(-c2nc(C(F)(F)F)sc2N2CCO[C@@H]3C[C@@H]32)o1` (single isomer, unassigned) [Example 487]: < 6.10. As to `N#Cc1ccc(-c2nnc(NC3N=C(c4ccccc4)c4ccccc4NC3=O)o2)nc1` (stereo not drawn) [Example 24], the negative logarithm of the EC50 (pEC50) under setting [1] was 6.10 to 6.40.

Consider `COc1cc(-c2nnc(NC3N=C(c4ccccc4)c4ccccc4NC3=O)o2)ccn1` (stereo not drawn) [Example 56], for which, under setting [1], the pEC50 is < 6.10.

For the compound `CCOC(=O)c1nnc(NC2N=C(c3ccccc3)c3ccccc3NC2=O)o1` (stereo not drawn) [Example 78], the pEC50 under setting [1] is < 6.10.

Regarding `O=C1Nc2ccccc2C(c2ccccc2)=NC1Nc1ncc(-c2ccccc2)s1` (stereo not drawn) [Example 85], the pEC50 under setting [1] is < 6.10.

As for `O=C1Nc2ccccc2C(c2ccccc2)=NC1Nc1noc(-c2ccccc2)n1` (stereo not drawn) [Example 91], the pEC50 under setting [1] is < 6.10. Turning to `COc1ccc(CN2C(=O)C(C)(N)N=C(c3ccccc3)c3ccccc32)cc1` (stereo not drawn) [Example 102], the pEC50 under setting [1] is < 6.10. Regarding `CS(=O)(=O)c1ccc(-c2nnc(NC3N=C(c4ccccc4)c4ccccc4NC3=O)o2)nc1` (stereo not drawn) [Example 107], the pEC50 under setting [1] is < 6.10. On the same count and under the same terms, the same measure for `COc1ccc(-c2nnc(NC3N=C(c4ccccc4)c4ccccc4NC3=O)o2)nc1Cl` (stereo not drawn) [Example 109]: < 6.10; for `Cc1nc(-c2nnc(NC3N=C(c4ccccc4)c4ccccc4NC3=O)o2)ccc1F` (stereo not drawn) [Example 110]: < 6.10. Same read-out and setting: the same measure for `O=C1Nc2ccccc2C(c2ccccc2)=NC1Nc1nnc(-c2cccc(N3CCOCC3)c2)o1` (stereo not drawn) [Example 111]: < 6.10. Still for that read-out and setting: the same measure for `O=C1Nc2ccccc2C(c2ccccc2)=NC1Nc1nnc(-c2ccc(N3CCOCC3)c(F)c2)o1` (stereo not drawn) [Example 112]: < 6.10; for `O=C1Nc2ccccc2C(c2ccccc2)=NC1Nc1nnc(-c2ccc(N3CCOCC3)cn2)o1` (stereo not drawn) [Example 114]: < 6.10; for `O=C1Nc2ccccc2C(c2ccccc2)=NC1Nc1nnc(-c2ccc(N3CCOCC3)nc2)o1` (stereo not drawn) [Example 115]: > 6.40. Regarding `O=C1Nc2ccccc2C(c2ccccc2)=NC1Nc1nnc(-c2ccc(NC3CCCCC3)cc2)o1` (stereo not drawn) [Example 116], the pEC50 under setting [1] is < 6.10. For `COCCNc1ccc(-c2nnc(NC3N=C(c4ccccc4)c4ccccc4NC3=O)o2)cc1` (stereo not drawn) [Example 117], under setting [1], the pEC50 was < 6.10. On the same count and under the same terms, the same measure for `COCCN(C)c1ccc(-c2nnc(NC3N=C(c4ccccc4)c4ccccc4NC3=O)o2)cc1` (stereo not drawn) [Example 118]: < 6.10; for `O=C1Nc2ccccc2C(c2ccccc2)=NC1Nc1nnc(-c2cc(F)ccc2N2CCOCC2)o1` (stereo not drawn) [Example 119]: 6.10 to 6.40; for `CS(=O)(=O)c1ccc(-c2nnc(NC3N=C(c4ccccc4)c4ccccc4NC3=O)o2)c(N2CCOCC2)c1` (stereo not drawn) [Example 121]: < 6.10. With `O=C1Nc2ccccc2C(c2ccccc2)=NC1Nc1nnc(-c2ccc(N3CCOCC3)cc2Cl)o1` (stereo not drawn) [Example 122], the pEC50 under setting [1] is < 6.10. Still for that read-out and setting: under `O=C1Nc2ccccc2C(c2ccccc2)=NC1Nc1nnc(-c2ccc(N3CCOCC3)cc2)o1` (stereo not drawn) [Example 124a] stands > 6.40; under `O=C1Nc2ccccc2C(c2ccccc2)=N[C@H]1Nc1nnc(-c2ccc(N3CCOCC3)cc2)o1` [Example 124b], < 6.10; under `O=C1Nc2ccccc2C(c2ccccc2)=N[C@@H]1Nc1nnc(-c2ccccc2N2CCOCC2)o1` [Example 125a], > 6.40. Turning to `O=C1Nc2ccccc2C(c2ccccc2)=N[C@H]1Nc1nnc(-c2ccccc2N2CCOCC2)o1` [Example 125b], the pEC50 under setting [1] was < 6.10.

As to `O=C1Nc2ccccc2C(c2ccccc2)=N[C@@H]1Nc1nnc(-c2ccc(N3CCOCC3)cc2F)o1` [Example 126a], the pEC50 under setting [1] is > 6.40. On to `O=C1Nc2ccccc2C(c2ccccc2)=N[C@H]1Nc1nnc(-c2ccc(N3CCOCC3)cc2F)o1` [Example 126b], for which the pEC50 under setting [1] is < 6.10. In the case of `O=C1Nc2ccccc2C(c2ccccc2)=NC1Nc1nnc(-c2ccc(-n3cncn3)cc2N2CCOCC2)o1` (stereo not drawn) [Example 128], the pEC50 under setting [1] was 6.10 to 6.40.

For `O=C1Nc2ccccc2C(c2ccccc2)=NC1Nc1nnc(-c2ccc(C(F)(F)F)nc2N2CCOCC2)o1` (stereo not drawn) [Example 130], the pEC50 under setting [1] was 6.10 to 6.40. On to `O=C1Nc2ccccc2C(c2ccccc2)=NC1Nc1nnc(-c2ncccc2N2CCOCC2)o1` (stereo not drawn) [Example 132], for which the negative logarithm of the EC50 (pEC50) under setting [1] was > 6.40.

Regarding `O=C1Nc2ccccc2C(c2ccccc2)=NC1Nc1nnc(-c2cnccc2N2CCOCC2)o1` (stereo not drawn) [Example 133], under setting [1], the pEC50 is 6.10 to 6.40. As to `O=C1Nc2ccccc2C(c2ccccc2)=NC1Nc1nnc(-c2cnccc2N2CCCCC2)o1` (stereo not drawn) [Example 134], the pEC50 under setting [1] is < 6.10. Consider `O=C1Nc2ccccc2C(c2ccccc2)=NC1Nc1nnc(-c2ncc(N3CCOCC3)cc2Cl)o1` (stereo not drawn) [Example 135], for which, under setting [1], the pEC50 was < 6.10.

Consider `N#Cc1cnc(-c2nnc(NC3N=C(c4ccccc4)c4ccccc4NC3=O)o2)c(N2CCOCC2)c1` (stereo not drawn) [Example 140], for which, under setting [1], the pEC50 is > 6.40.

In the case of `O=C1Nc2ccccc2C(c2ccccc2)=NC1Nc1nnc(-c2ccncc2N2CCCCC2)o1` (stereo not drawn) [Example 141], the pEC50 under setting [1] is < 6.10. For `O=C1Nc2ccccc2C(c2ccccc2)=NC1Nc1nnc(-c2ccncc2N2CCOCC2)o1` (stereo not drawn) [Example 142], the pEC50 under setting [1] was 6.10 to 6.40.

Take `O=C1Nc2ccccc2C(c2ccccc2)=NC1Nc1nnc(-c2nccnc2N2CCOCC2)o1` (stereo not drawn) [Example 143]: the pEC50 under setting [1] was > 6.40. In the case of `O=C1Nc2ccccc2C(c2ccccc2)=NC1Nc1nnc(-c2cc(F)cnc2N2CCOCC2)o1` (stereo not drawn) [Example 145], the pEC50 under setting [1] was 6.10 to 6.40. The same measure, in the same setting: the same measure for `O=C1Nc2ccccc2C(c2ccccc2)=NC1Nc1nnc(-c2cc(C(F)(F)F)cnc2N2CCOCC2)o1` (stereo not drawn) [Example 146]: < 6.10; for `O=C1Nc2ccccc2C(c2ccccc2)=NC1Nc1nnc(-c2ccc(N3CCOCC3)cc2C(F)(F)F)o1` (stereo not drawn) [Example 147]: < 6.10; for `O=C1Nc2ccccc2C(c2ccccc2)=NC1Nc1nnc(-c2cccc(F)c2N2CCOCC2)o1` (stereo not drawn) [Example 148]: < 6.10. `O=C1Nc2ccccc2C(c2ccccc2)=N[C@@H]1Nc1nnc(-c2ccc(F)nc2N2CCOCC2)o1` [Example 151, (S)-3-((5-(6-fluoro-2-morpholinopyridin-3-yl)-1,3,4-oxadiazol-2-yl)amino)-5-phenyl-1,3-dihydro-2H-benzo[e][1,4]diazepin-2-one]: the pEC50 under setting [1] is > 6.40. On the same count and under the same terms, the same measure for `O=C1Nc2ccccc2C(c2ccccc2)=N[C@@H]1Nc1nnc(-c2ccc(C(F)(F)F)cc2N2CCOCC2)o1` [Example 152]: > 6.40. Consider `O=C1Nc2ccccc2C(c2ccccc2)=N[C@@H]1Nc1nnc(-c2ccc(C3CC3)nc2N2CCOCC2)o1` [Example 154], for which the pEC50 under setting [1] was > 6.40. On to `O=C1Nc2ccccc2C(c2ccccc2)=N[C@@H]1Nc1nnc(-c2ccc(=O)[nH]c2N2CCOCC2)o1` [Example 156, (S)-3-((5-(2-morpholino-6-oxo-1,6-dihydropyridin-3-yl)-1,3,4-oxadiazol-2-yl)amino)-5-phenyl-1,3-dihydro-2H-benzo[e][1,4]diazepin-2-one], for which the pEC50 under setting [1] was < 6.10. Regarding `N#Cc1ccc(-c2nnc(N[C@H]3N=C(c4ccccc4)c4ccccc4NC3=O)o2)c(N2CCOCC2)c1` [Example 157], the pEC50 under setting [1] is > 6.40. `O=C1Nc2ccccc2C(c2ccccc2)=N[C@@H]1Nc1nnc(-c2ccc(F)cc2N2CCOCC2)o1` [Example 159]: the pEC50 under setting [1] was > 6.40.

One may read the pEC50 as −log10 of the EC50, conventionally taken in molar units.

These data come from patent publication US11390631B1, “Benzodiazepine derivatives as RSV inhibitors” (priority 2015, dated 2022).
